# Measurements as given in patent US9725445B2, “Cycloalkyl nitrile pyrazolo pyridones as Janus kinase inhibitors” (Merck Sharp & Dohme Corp., priority 2013, dated 2017).
# Target: JAK1 (Homo sapiens (Human), UniProt P23458)
# Assay: Jak biochemical HTRF assay, JAK1
# Conditions: HTRF biochemical assay, recombinant GST-tagged catalytic domain; read-out: JAK1 IC50
# Description: Jak Biochemical HTRF Assay Protocol
# The ability of compounds to inhibit the activity of JAK1, JAK2, JAK3, and Tyk2 was measured using a recombinant purified GST-tagged catalytic domain for each enzyme (Invitrogen JAK1 #M4290, JAK2 #M4290, JAK3 #M4290, Tyk2 #M4290) in an HTRF format biochemical assay. […] The basic assay protocol is as follows: First, 250 nL of diluted compounds in DMSO were dispensed into the wells of a dry 384-well Black plate (Greiner #781076) using a Labcyte Echo 555 acoustic dispenser. Subsequent reagent additions employed an Agilent Bravo. […] After equilibration, 2 μL of 10×ATP in 1× assay buffer was added to initiate the kinase reaction and the plates were shaken and then incubated at room temperature for 120 minutes. […] Plates were shaken and centrifuged and then incubated 60 minutes at room temperature and then read on a Perkin Elmer Envision (λex=337 nm, λem=665 and 615 nm, TRF delay time=20 μs). HTRF signal=10,000*665 nm reading/615 nm reading. After normalization to untreated controls, the percent inhibition of the HTRF signal at each compound concentration was calculated. The plot of percent inhibition versus the log of compound concentration was fit with a 4-parameter dose response equation to calculate IC50 values.
# Final Reaction Conditions were:
# Examples of the instant invention were evaluated in JAK1 and JAK2 in vitro binding assays.
# Sequence of JAK1 (P23458 875-1153): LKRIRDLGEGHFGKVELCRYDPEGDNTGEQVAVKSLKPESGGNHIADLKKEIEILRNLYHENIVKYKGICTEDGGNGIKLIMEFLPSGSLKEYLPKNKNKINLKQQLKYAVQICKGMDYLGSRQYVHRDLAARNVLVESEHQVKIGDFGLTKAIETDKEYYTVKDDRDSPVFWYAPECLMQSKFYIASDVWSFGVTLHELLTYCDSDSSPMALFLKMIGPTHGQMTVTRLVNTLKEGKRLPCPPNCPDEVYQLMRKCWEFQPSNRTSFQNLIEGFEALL
row,IC50 [nM],Compound
1,0.22,"CC(C)(C)OC(=O)C1CCC(N2Cc3cc(Nc4nn([C@H]5CCCC[C@@H]5C#N)c5cc[nH]c(=O)c45)ccc3C2=O)CC1 (single isomer, unassigned) [Example 3-135, (cis or trans)tert-butyl 4-(5-((1-((1S,2S)-2-cyanocyclohexyl)-4-oxo-4,5-dihydro-1H-pyrazolo[4,3-c]pyridin-3-yl)amino)-1-oxoisoindolin-2-yl)cyclohexanecarboxylate]"
2,5.3,"CC(C)OC(=O)C(C)(C)C(O)(c1ccc(Nc2nn([C@H]3CCCC[C@@H]3C#N)c3cc[nH]c(=O)c23)cc1)C(F)(F)F (single isomer, unassigned) [Example 3-119, (R or S) Isopropyl 3-(4-((1-((1S,2S)-2-cyanocyclohexyl)-4-oxo-4,5-dihydro-1H-pyrazolo[4,3-c]pyridin-3-yl)amino)phenyl)-4,4,4-trifluoro-3-hydroxy-2,2-dimethylbutanoate]"
3,0.31,"N#C[C@H]1CCCC[C@@H]1n1nc(Nc2cccc(CNC(=O)c3cnco3)c2)c2c(=O)[nH]ccc21 [Example 3-12, N-[3-({1-[(1S,2S)-2-cyanocyclohexyl]-4-oxo-4,5-dihydro-1H-pyrazolo[4,3-c]pyridin-3-yl}amino)benzyl]-1,3-oxazole-5-carboxamide]"
4,0.14,"N#C[C@H]1CCCC[C@@H]1n1nc(Nc2ccc(C3(C(F)(F)F)CCCN3)cc2)c2c(=O)[nH]ccc21 (single isomer, unassigned) [Example 15-61, (1S,2S)-2-[4-oxo-3-({4-[(2R or 2S)-2-(trifluoromethyl)pyrrolidin-2-yl]phenyl}amino)-4,5-dihydro-1H-pyrazolo[4,3-c]pyridin-1-yl]cyclohexanecarbonitrile]"
5,0.46,"Cc1cc(Nc2nn([C@H]3CCCC[C@@H]3C#N)c3cc[nH]c(=O)c23)ccc1C(C(C)C)n1nccn1 (single isomer, unassigned) [Example 15-36, (1S,2S)-2-[3-({3-methyl-4-[(1R or 1S)-2-methyl-1-(2H-1,2,3-triazol-2-yl)propyl]phenyl}amino)-4-oxo-4,5-dihydro-1H-pyrazolo[4,3-c]pyridin-1-yl]cyclohexanecarbonitrile]"
6,0.18,"N#C[C@H]1CCCC[C@@H]1n1nc(Nc2ccc(-c3ccon3)cc2)c2c(=O)[nH]ccc21 [Example 15-4, (1S,2S)-2-{3-[(4-isoxazol-3-ylphenyl)amino]-4-oxo-4,5-dihydro-1H-pyrazolo[4,3-c]pyridin-1-yl}cyclohexanecarbonitrile]"
7,0.14,"N#C[C@H]1C[C@@H](N2CC(O)C2)CC[C@@H]1n1nc(Nc2ccc(Cl)cc2)c2c(=O)[nH]ccc21 [Example 5-20, (1S,2S,5S)-2-(3-((4-chlorophenyl)amino)-4-oxo-4,5-dihydro-1H-pyrazolo[4,3-c]pyridin-1-yl)-5-(3-hydroxyazetidin-1-yl)cyclohexanecarbonitrile]"
8,0.78,"CN(C)S(=O)(=O)c1ccc(Nc2nn([C@H]3CCCC[C@@H]3C#N)c3cc[nH]c(=O)c23)cc1CN [Example 8-1, 2-(Aminomethyl)-4-((1-((1S,2S)-2-cyanocyclohexyl)-4-oxo-4,5-dihydro-1H-pyrazolo[4,3-c]pyridin-3-yl)amino)-N,N-dimethylbenzenesulfonamide]"
9,0.18,"N#C[C@H]1CCCC[C@@H]1n1nc(Nc2ccc3c(c2)CC2(CC2)C3(O)C(F)(F)F)c2c(=O)[nH]ccc21 (single isomer, unassigned) [Example 3-123, (1S,2S)-2-(3-(((R or S)-1′-hydroxy-1′-(trifluoromethyl)-1′,3′-dihydrospiro[cyclopropane-1,2′-inden]-5′-yl)amino)-4-oxo-4,5-dihydro-1H-pyrazolo[4,3-c]pyridin-1-yl)cyclohexanecarbonitrile]"
10,0.11,"N#C[C@H]1C[C@H](N2CC(O)C2)CC[C@@H]1n1nc(Nc2ccc(Cl)cc2)c2c(=O)[nH]ccc21 [Example 5-19, (1S,2S,5R)-2-(3-((4-chlorophenyl)amino)-4-oxo-4,5-dihydro-1H-pyrazolo[4,3-c]pyridin-1-yl)-5-(3-hydroxyazetidin-1-yl)cyclohexanecarbonitrile]"
11,0.46,"CC(C)(C)N1Cc2cc(Nc3nn([C@@H]4CCCCC[C@@H]4C#N)c4cc[nH]c(=O)c34)ccc2S1(=O)=O (single isomer, unassigned) [Example 3-179, (1S,2R or 1R,2S)-2-{3-[(2-tert-butyl-1,1-dioxido-2,3-dihydro-1,2-benzisothiazol-5-yl)amino]-4-oxo-4,5-dihydro-1H-pyrazolo[4,3-c]pyridin-1-yl}cycloheptanecarbonitrile]"
12,0.076,"COCC(C)(C)CN1Cc2cc(Nc3nn([C@@H]4CCCCC[C@H]4C#N)c4cc[nH]c(=O)c34)ccc2S1(=O)=O (single isomer, unassigned) [Example 15-46, (1R,2R or 1S,2S)-2-(3-{[2-(3-methoxy-2,2-dimethylpropyl)-1,1-dioxido-2,3-dihydro-1,2-benzisothiazol-5-yl]amino}-4-oxo-4,5-dihydro-1H-pyrazolo[4,3-c]pyridin-1-yl)cycloheptanecarbonitrile]"
13,1,"CC(C)OC(=O)C(C)(C)C(O)(c1ccc(Nc2nn([C@H]3CCCC[C@@H]3C#N)c3cc[nH]c(=O)c23)cc1)C(F)(F)F (single isomer, unassigned) [Example 3-120, (R or S) Isopropyl 3-(4-((1-((1S,2S)-2-cyanocyclohexyl)-4-oxo-4,5-dihydro-1H-pyrazolo[4,3-c]pyridin-3-yl)amino)phenyl)-4,4,4-trifluoro-3-hydroxy-2,2-dimethylbutanoate]"
14,0.84,"CC(C)(C)N1Cc2cc(Nc3nn([C@H]4CCCCC[C@H]4C#N)c4cc[nH]c(=O)c34)ccc2S1(=O)=O (single isomer, unassigned) [Example 3-178, (1R,2S or 1S,2R)-2-{3-[(2-tert-butyl-1,1-dioxido-2,3-dihydro-1,2-benzisothiazol-5-yl)amino]-4-oxo-4,5-dihydro-1H-pyrazolo[4,3-c]pyridin-1-yl}cycloheptanecarbonitrile]"
15,0.16,"CN(C)C(c1ccc(Nc2nn([C@H]3CCCC[C@@H]3C#N)c3cc[nH]c(=O)c23)cc1)C(F)(F)F (single isomer, unassigned) [Example 9-3, (1S,2S)-2-(3-(4-((S or R)-1-(Dimethylamino)-2,2,2-trifluoroethyl)phenylamino)-4-oxo-4,5-dihydropyrazolo[4,3-c]pyridin-1-yl)cyclohexanecarbonitrile]"
16,0.39,"CC1(C)C(O)c2cc(Nc3nn([C@H]4CCCC[C@@H]4C#N)c4cc[nH]c(=O)c34)ccc2S1(=O)=O (single isomer, unassigned) [Example 3-172, (1S,2S)-2-(3-{[(3S or 3R)-3-hydroxy-2,2-dimethyl-1,1-dioxido-2,3-dihydro-1-benzothiophen-5-yl]amino}-4-oxo-4,5-dihydro-1H-pyrazolo[4,3-c]pyridin-1-yl)cyclohexanecarbonitrile]"
17,97,"C[C@H](N[C@H]1CC[C@@H](n2nc(Nc3ccc(C(F)(F)F)cc3)c3c(=O)[nH]ccc32)[C@H](C#N)C1)C1CC1 [Example 5-13, (1R,2R,5S)-5-(((S)-1-cyclopropylethyl)amino)-2-(4-oxo-3-((4-(trifluoromethyl)phenyl)amino)-4,5-dihydro-1H-pyrazolo[4,3-c]pyridin-1-yl)cyclohexanecarbonitrile]"
